Results taken from patent US10080365B2, “Use of strobilurin type compounds for combating phytopathogenic fungi resistant to Qo inhibitors” (BASF SE, priority 2011, dated 2018).

Experiments:
[1] = system: Septoria tritici (Qo-inhibitor sensitive, wild-type); test: Microtiter test, Septoria tritici Qo-inhibitor sensitive wild-type (Use Example 1); type: cell-based; conditions: turbidity at 620 nm, read-out: Sensitive Septoria tritici isolate (wild type) (S-IC50)
Protocol: (§1) The active substances were formulated separately as a stock solution in dimethyl sulfoxide (DMSO) at a concentration of 10 000 ppm.
(§2) Activity against the Septoria blotch pathogen caused by Septoria tritici in the microtiter test
(§3) Fungal strains used: • a) Septoria tritici (Qo-inhibitor sensitive, wild-type) • b) Septoria tritici (Qo-inhibitor-resistant, G143A mutant)
(§4) 100 ml 2% Malt extract in water at pH6.8 were inoculated with microspores from 2 week old cultures grown on 2% malt extract+2% agar in Petri dishes and incubated for 3 days on a rotary shaker at 24° C. und 150 rpm. The culture was harvested, glycerol was added (15% (v/v) and kept frozen at −20° C. in aliquots of 1 ml.
(§5) 1 ml stock suspension was thawed and suspended into 800 ml of 2% malt extract in water at pH 6.8. Compounds were diluted from stock solution in (dimethylsulfoxide) DMSO in 10 steps. The compound solutions were diluted 1/5 with sterile deionized water before use. 5 μl of the compound solutions were transferred into empty microplates. The plates were then filled with 195 μl of the microspore suspension of each strain.
(§6) The antifungal activity was determined by measuring the turbidity of a culture in 96-well microplates in the presence of test compounds. Fungal growth was measured by recording the optical density at 620 nm every 15 h for 150 h. The relative antifungal activity was calculated by comparison of the effect of the test compounds with the effect of a DMSO control and a standard fungicide.
(§7) IC50-values (concentration of test compound resulting in 50% inhibition of fungal growth) were calculated from the resulting dose-response for each compound and strain. The initial concentration of the test compounds and the 10 steps of dilution (1:4 each) allowed IC50-values from 0.001 to 100 μmol/l (μM) to be assessed.

[2] = system: Septoria tritici (Qo-inhibitor-resistant, G143A mutant); test: Microtiter test, Septoria tritici Qo-inhibitor-resistant G143A mutant (Use Example 1); type: cell-based; conditions: for IC50: microtiter test, Qo-inhibitor-resistant G143A mutant, turbidity at 620 nm, read-out: Resistant Septoria tritici isolate (G143A mutation) (R-IC50); for Resistance factor RF = R-IC50/S-IC50: ratio of IC50 for G143A resistant isolate to IC50 for wild-type sensitive isolate
Protocol: as §1, §2, §3, §4, §5, §6, §7

| Compound | IC50 [1] [µM] | IC50 [2] [µM] | Resistance factor RF = R-IC50/S-IC50 [2] |
| --- | --- | --- | --- |
| CO/C=C(/C(=O)OC)c1ccccc1Oc1cc(Oc2ccccc2C#N)ncn1 [Azoxystrobin, reference compound] | 3.5 | > 100 |  |
| CON=C(C(=O)OC)C(C)=CCOc1ccn(-c2ccc(Cl)cc2)n1 [Compound I-5] | 0.083 | 2.2 | 26 |
| C=CCON=C(C)c1cc(C)c(OCC=C(C)C(=NOC)C(=O)NC)cc1C [Compound I-82] | 1.1 | 6.8 | 6 |
| C=CCON=C(C)c1ccc(OCC=C(C)C(=NOC)C(=O)NC)c(C)c1 [Compound I-83] | 1.6 | 7.6 | 4.6 |
| C=C(Cl)CON=C(C)c1cc(C)c(OCC=C(C)C(=NOC)C(=O)NC)cc1C [Compound I-84] | 0.5 | 16.1 | 33 |
| C=C(Cl)CON=C(C)c1ccc(OCC=C(C)C(=NOC)C(=O)NC)c(C)c1 [Compound I-85] | 0.8 | 22 | 29 |
| CC=CCON=C(C)c1cc(C)c(OCC=C(C)C(=NOC)C(=O)NC)cc1C [Compound I-90] | 1 | 26 | 26 |
| CC=CCON=C(C)c1ccc(OCC=C(C)C(=NOC)C(=O)NC)c(C)c1 [Compound I-91] | 1.6 | 27 | 17 |
| C=CCON=C(C)c1cc(C)c(OCC=C(C)C(=NOC)C(=O)OC)cc1C [Compound I-94] | 0.6 | 12 | 22 |
| C=CCON=C(C)c1ccc(OCC=C(C)C(=NOC)C(=O)OC)c(C)c1 [Compound I-95] | 2.2 | 29 | 14 |
| C=C(Cl)CON=C(C)c1ccc(OCC=C(C)C(=NOC)C(=O)OC)c(C)c1 [Compound I-97] | 1.7 | 49 | 29 |
| CCON=C(C)c1ccc(OCC=C(C)C(=NOC)C(=O)OC)c(C)c1 [Compound I-191] | 1.3 | 37 | 29 |
| Cc1cc(-n2cccn2)ccc1OCc1ccccc1-n1nnn(C)c1=O [Compound I-212] | 1.4 | 8.3 | 6 |
| CC(=NOCc1ccccc1-n1nnn(C)c1=O)c1cccc(-c2cnn(-c3ccccc3)c2)c1 [Compound I-213] | 0.076 | 0.057 | 0.7 |
| C/C(=N\OC/C=C/Cl)c1ccc(OCc2ccccc2-n2nnn(C)c2=O)c(C)c1 [Compound I-217] | 6.3 | 63 | 10 |
| C=CCO/N=C(\C)c1ccc(OCc2ccccc2-n2nnn(C)c2=O)c(C)c1 [Compound I-218] | 5.6 | 79 | 14 |
| C#CCO/N=C(\C)c1ccc(OCc2ccccc2-n2nnn(C)c2=O)c(C)c1 [Compound I-221] | 3.4 | 10 | 3 |
| C/C(=N\OC/C=C/Cl)c1cc(C)c(OCc2ccccc2-n2nnn(C)c2=O)cc1C [Compound I-223] | 2.7 | 19 | 7 |
| C=CCO/N=C(\C)c1cc(C)c(OCc2ccccc2-n2nnn(C)c2=O)cc1C [Compound I-224] | 1.7 | 5.4 | 3.2 |
| C/C=C/CO/N=C(\C)c1cc(C)c(OCc2ccccc2-n2nnn(C)c2=O)cc1C [Compound I-225] | 3.4 | 72 | 21 |
| C/C(=N\OC/C=C\Cl)c1cc(C)c(OCc2ccccc2-n2nnn(C)c2=O)cc1C [Compound I-228] | 3.4 | 10 | 3.0 |
| CC(Cc1ccc(Cl)cc1)=NOCc1ccccc1-n1nnn(C)c1=O [Compound I-230] | 3.2 | 25 | 8 |
| CO/N=C(\C)c1ccc(OCc2ccccc2-n2nnn(C)c2=O)c(C)c1 [Compound I-233] | 0.24 | 2.7 | 12 |
| CCC/C(=N\OC)c1cc(C)c(OCc2ccccc2-n2nnn(C)c2=O)cc1C [Compound I-234] | 2.4 | 4 | 1.7 |

| Compound | IC50 [1] [µM] | IC50 [2] [µM] | Resistance factor RF = R-IC50/S-IC50 [2] |
| --- | --- | --- | --- |
| CCC/C(=N\OC)c1ccc(OCc2ccccc2-n2nnn(C)c2=O)c(C)c1 [Compound I-235] | 13 | 51 | 4 |
| CCON=C(c1ccc(OCc2ccccc2-n2nnn(C)c2=O)c(C)c1)C1CC1 [Compound I-236] | 6 | 24 | 4 |
| CCON=C(CC)c1ccc(OCc2ccccc2-n2nnn(C)c2=O)c(C)c1 [Compound I-238] | 6 | 12 | 1.9 |
| Cn1nnn(-c2ccccc2COc2nn(-c3ccc(Cl)cc3)cc2Cl)c1=O [Compound I-243] | 4.1 | 15 | 3.6 |
| Cc1cn(-c2ccc(Cl)cc2)nc1OCc1ccccc1-n1nnn(C)c1=O [Compound I-244] | 0.6 | 1.3 | 2.0 |
| Cn1nnn(-c2ccccc2COc2ccn(-c3cccc(C(F)(F)F)c3)n2)c1=O [Compound I-247] | 5 | 9 | 1.9 |
| CCON=C(C)c1ccc(OCc2ccccc2-n2nnn(C)c2=O)c(C)c1 [Compound I-249] | 2.4 | 11 | 5 |
| CCCC(=NOCC)c1cc(C)c(OCc2ccccc2-n2nnn(C)c2=O)cc1C [Compound I-250] | 19 | 97 | 5 |
| CCON=C(C)c1cc(C)c(OCc2ccccc2-n2nnn(CC)c2=O)cc1C [Compound I-255] | 19 | 42 | 2.2 |
| CCC(=NOC)c1ccc(OCc2ccccc2-n2nnn(CC)c2=O)c(C)c1 [Compound I-256] | 21 | 24 | 1.1 |
| CCn1nnn(-c2ccccc2COc2cc(C)c(C(C)=NOC)cc2C)c1=O [Compound I-257] | 15 | 67 | 4.5 |
| Cc1ccc(-n2cc(C)c(OCc3ccccc3-n3nnn(C)c3=O)n2)cc1 [Compound I-260] | 2.3 | 3.3 | 1.4 |
| CCc1ccc(-n2cc(C)c(OCc3ccccc3-n3nnn(C)c3=O)n2)cc1 [Compound I-261] | 2.9 | 5 | 1.6 |
| Cc1ccc(-n2cc(C)c(OCc3ccccc3-n3nnn(C)c3=O)n2)cc1C [Compound I-262] | 1 | 1.6 | 1.6 |
| Cc1ccc(-n2cc(C)c(OCc3ccccc3-n3nnn(C)c3=O)n2)c(C)c1 [Compound I-265] | 3.8 | 4 | 1.1 |
| Cc1cc(-c2cnco2)c(C)cc1OCc1ccccc1-n1nnn(C)c1=O [Compound I-267] | 2.9 | 5 | 1.7 |
| Cc1cc(-c2c(C)noc2C)c(C)cc1OCc1ccccc1-n1nnn(C)c1=O [Compound I-269] | 8 | 74 | 10 |
| Cc1ncc(-c2cc(C)c(OCc3ccccc3-n3nnn(C)c3=O)cc2C)o1 [Compound I-270] | 6 | 57 | 10 |
| Cc1cc(-c2cnoc2)c(C)cc1OCc1ccccc1-n1nnn(C)c1=O [Compound I-271] | 1.9 | 7 | 3.9 |
| Cc1c(OCc2ccccc2-n2nnn(C)c2=O)nn2c(C3CC3)cc(C3CC3)nc12 [Compound I-273] | 5 | 22 | 4 |
| CC(=NOCc1ccccc1-n1nnn(C)c1=O)C(=O)c1ccc(C)c(C)c1 [Compound I-274] | 9 | 19 | 2.0 |
| CCC(=CCOc1ccn(-c2ccc(Cl)cc2)n1)C(=NOC)C(=O)NC [Compound I-287] | 1.5 | 18 | 12 |
| CNC(=O)C(=NOC)C(C)=CCOc1ncn(-c2ccc(Cl)cc2)n1 [Compound I-288] | 3.5 | 28 | 8.0 |
